According to patent publication US11098040B2, “Compounds and methods of use” (Ferro Therapeutics, Inc., priority 2018, dated 2021):

Legend:
KP4 = experiment: Cell viability assay (CellTiter Glo), pancreatic ductal adenocarcinoma KP4; format: cell-based, human; conditions: Homo sapiens, KP-4, 96 h, pancreatic cancer cell line KP4, 96 hours, CellTiter Glo; read-out: IC50 μM KP4
Method: (§1) Cell viability assay was performed to assess the potency of the compounds in human cancer cell lines KP4 (pancreatic ductal adenocarcinoma), MiaPaCa-2 (pancreatic carcinoma), AsPC-1 (pancreatic adenocarcinoma, ascites), 143B (osteosarcoma), and SJSA-1 (osteosarcoma). Selected compounds were also assayed in a human breast epithelial cell line MCF-10A, a nontumorigenic cell line as a control to assess differential activity. Cells at a density of 500-5,000 cells/well were seeded in 96-well plates and incubated at 37° C. overnight. A series of 9 different concentrations of compound stocks (500×) were created by 3-fold serial dilution in DMSO. These compounds were further diluted in culture media and then added to cells so that the final DMSO concentration was equal to 0.25% or less. After 96 hours of incubation, 50 μL of CellTiter Glo reagent (Promega) was added to each well and luminescence was measured after 10 minutes using EnVision (PerkinElmer). Compounds titrated from top concentration of up to 30 μM. The select compounds were tested initially from 30 μM as the top concentration in duplicates (range of 4.6 nM-30 μM). […] Luminescence from cells treated with DMSO alone was set as Max and % of inhibition was calculated as follows: Inhibition %=(Max-Sample value)/Max*100. Data was analyzed using XL-fit software (ID Business Solutions Ltd.). IC50, relative IC50, or % of top inhibition was calculated.
as §1, with “in” for “in human”, “line” for “lines”, “adenocarcinoma).” for “adenocarcinoma), MiaPaCa-2 (pancreatic carcinoma), AsPC-1 (pancreatic adenocarcinoma, ascites), 143B (osteosarcoma), and SJSA-1 (osteosarcoma). Selected compounds were also assayed in a human breast epithelial cell line MCF-10A, a nontumorigenic cell line as a control to assess differential activity.”, “1,000-10,000” for “500-5,000”, “All” for “Compounds titrated from top concentration of up to 30 μM. The select”
(§2) The results of the assay on stability in blood and IC50 values for pancreatic cancer cell line KP4 are given below in Table 24.

[1] = Whole blood stability, mouse; format: in vitro ADME
From the text: as §2

[2] = Whole blood stability, human; format: in vitro ADME
From the text: as §2

SMILES | IC50 (KP4) [µM] | Whole Blood Stability % Remaining at 37° C. Mouse ([1]; 0 min) [%] | Whole Blood Stability % Remaining at 37° C. Mouse ([1]; 30 min) [%] | Whole Blood Stability % Remaining at 37° C. Mouse ([1]; 60 min) [%] | Whole Blood Stability % Remaining at 37° C. Human ([2]; 0 min) [%] | Whole Blood Stability % Remaining at 37° C. Human ([2]; 30 min) [%] | Whole Blood Stability % Remaining at 37° C. Human ([2]; 60 min) [%]
COC(=O)[C@H]1Cc2c([nH]c3ccccc23)[C@H](c2ccc(C(=O)OC(C)(C)C)cc2)N1C(=O)/C=C/CCl [Compound 25] | 0.1 to 0.5 | 100.0 | 46.2 | 24.4 | 100.0 | 55.0 | 51.9
COC(=O)[C@H]1Cc2c([nH]c3ccccc23)[C@H](c2ccc(C(=O)N3CCOCC3)cc2)N1C(=O)CCl [Compound 26] | 0.01 to 0.1 | 100.0 | 67.7 | 55.7 | 100.0 | 47.1 | 22.9
COC(=O)[C@H]1Cc2c([nH]c3ccccc23)[C@H](c2ccc(C(=O)NCCN3CCOCC3)cc2)N1C(=O)CCl [Compound 27] | 0.01 to 0.1 | 100.0 | 78.2 | 73.2 | 100.0 | 63.9 | 48.3
COC(=O)[C@H]1Cc2c([nH]c3ccccc23)[C@H](c2ccc(C(=O)N3CCNCC3)cc2)N1C(=O)CCl [Compound 31] | 0.1 to 0.5 | 100.0 | 90.0 | 75.5 | 100.0 | 49.4 | 32.6
COC(=O)[C@H]1Cc2c([nH]c3ccccc23)[C@H](c2ccc(C(=O)N3CCC(O)CC3)cc2)N1C(=O)CCl [Compound 32] | > 1 | 100.0 | 0.0 | 0.0 | 100.0 | 0.1 | 0.1

Results, then the molecule that gave them:

IC50 (KP4) [µM] | Whole Blood Stability % Remaining at 37° C. Mouse ([1]; 0 min) [%] | Whole Blood Stability % Remaining at 37° C. Mouse ([1]; 30 min) [%] | Whole Blood Stability % Remaining at 37° C. Mouse ([1]; 60 min) [%] | Whole Blood Stability % Remaining at 37° C. Human ([2]; 0 min) [%] | Whole Blood Stability % Remaining at 37° C. Human ([2]; 30 min) [%] | Whole Blood Stability % Remaining at 37° C. Human ([2]; 60 min) [%] | SMILES
< 0.01 | 100.0 | 62.0 | 37.0 | 100.0 | 61.7 | 50.2 | COC(=O)[C@H]1Cc2c([nH]c3ccccc23)[C@H](c2ccc(S(=O)(=O)N[C@]34C[C@H]5C[C@H](C[C@H](C5)C3)C4)cc2)N1C(=O)CCl [Compound 24]
< 0.01 | 100.0 | 78.3 | 68.9 | 100.0 | 73.4 | 51.6 | COC(=O)[C@H]1Cc2c([nH]c3ccccc23)[C@H](c2ccc(C(=O)N[C@]34CC5C[C@H](C[C@H](C5)C3)C4)cc2)N1C(=O)CCl [Compound 28, Methyl-(1S,3R)-1-(4-(((3R,5R,7R)-adamantan-1-yl)carbamoyl)phenyl)-2-(2-chloroacetyl)-2,3,4,9-tetrahydro-1H-pyrido[3,4-b]indole-3-carboxylate]
< 0.01 | 100.0 | 61.9 | 51.1 | 100.0 | 67.3 | 49.2 | COC(=O)[C@H]1Cc2c([nH]c3ccccc23)[C@H](c2ccc(N[C@]34CC5C[C@H](C[C@H](C5)C3)C4)cc2)N1C(=O)CCl [Compound 29]
0.5 to 1 | 100.0 | 85.3 | 75.9 | 100.0 | 62.1 | 38.1 | COC(=O)[C@H]1Cc2c([nH]c3ccccc23)[C@H](c2ccc(S(=O)(=O)N[C@]34C[C@H]5C[C@H](C[C@H](C5)C3)C4)cc2)N1C(=O)/C=C/CCl [Compound 30]
